Test results taken from the supplement of paper PMC11208160.

Test: recombinant UMI read abundance after kanamycin selection (control-corrected) (log10(CPM+1)); higher = more efficient recombination; extreme values may be limits of the assay; sequences stand for … in AGTGCAGAGAAAATCGGCCAGTTTTCTCTGCCTGCAGTCCGCATGCCGTGGGACCCCTTGGGTTCTAACCTGTTGCCTAGATTTATGCAGCGGACTGCCTTTCTCCCAAAGTGATAAACCGG…AGGTTGGTTTCACT; site = the 11-nt donor
Method in brief: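 Values, expressed as log10(CPM+1), derive from recombinant UMI counts converted to CPM, averaged across replicates and scaled by control-derived factors. Plating was with IPTG (0.07 mM) plus kanamycin or unselected, two replicates each. The screen pooled donor and donor-binding-loop pairs for the IS621 bridge recombinase in Escherichia coli.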
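Note: IS621 bridge recombinase in Escherichia coli cells against a fixed T5 target plasmid.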

Sequence | recombinant UMI read abundance (log10)
CGATCATCATGGACCGGTTTTCCCGGTAATCCGTATTTGCA (site CGATCATCTCG) | 0
CGATCATCATGGACCGGTTTTCCCGGTAATCCGTATTTGCA (site CGATCATCTGG) | 0
CGATCATCATGGACCGGTTTTCCCGGTAATCCGTATTTGCA (site CGATCATCTTG) | 2.31
CGATCATCATGGACCGGTTTTCCCGGTAATCCGTATTTGGG (site CGATCATCTAG) | 0
CGATCATCATGGACCGGTTTTCCCGGTAATCCGTATTTGGG (site CGATCATCTCC) | 0.00655
CGATCCCCATGGACCGGTTTTCCCGGTAATCCGTATTTGAA (site CGATCCCCTTT) | 0.71
CGATCGACATGGACCGGTTTTCCCGGTAATCCGTATTTGTG (site CGATCGACTAA) | 0.242
CGATCGACATGGACCGGTTTTCCCGGTAATCCGTATTTGTG (site CGATCGACTCA) | 0.139
CGATCGACATGGACCGGTTTTCCCGGTAATCCGTATTTGTG (site CGATCGACTGA) | 0
CGATCGACATGGACCGGTTTTCCCGGTAATCCGTATTTGTG (site CGATCGACTTA) | 0.319
CGATCGACATGGACCGGTTTTCCCGGTAATCCGTATTTGTT (site AGATCGACTAA) | 0.0131
CGATCGACATGGACCGGTTTTCCCGGTAATCCGTATTTGTT (site CAATCGACTAA) | 0.0144
CGATCGACATGGACCGGTTTTCCCGGTAATCCGTATTTGTT (site CCATCGACTAA) | 0.0246
CGATCGACATGGACCGGTTTTCCCGGTAATCCGTATTTGTT (site CGAACGACTAA) | 0.0148
CGATCGACATGGACCGGTTTTCCCGGTAATCCGTATTTGTT (site CGACCGACTAA) | 0.509
CGATCGACATGGACCGGTTTTCCCGGTAATCCGTATTTGTT (site CGAGCGACTAA) | 0.0076
CGATCGACATGGACCGGTTTTCCCGGTAATCCGTATTTGTT (site CGATAGACTAA) | 0.00765
CGATCGACATGGACCGGTTTTCCCGGTAATCCGTATTTGTT (site CGATCAACTAA) | 0.0776
CGATCGACATGGACCGGTTTTCCCGGTAATCCGTATTTGTT (site CGATCCACTAA) | 0.0134
CGATCGACATGGACCGGTTTTCCCGGTAATCCGTATTTGTT (site CGATCGACTAA) | 0.6
CGATCGACATGGACCGGTTTTCCCGGTAATCCGTATTTGTT (site CGATCGACTAC) | 0.0194
CGATCGACATGGACCGGTTTTCCCGGTAATCCGTATTTGTT (site CGATCGACTAG) | 1.09
CGATCGACATGGACCGGTTTTCCCGGTAATCCGTATTTGTT (site CGATCGACTAT) | 0.188
CGATCGACATGGACCGGTTTTCCCGGTAATCCGTATTTGTT (site CGATCGACTCA) | 0.0164
CGATCGACATGGACCGGTTTTCCCGGTAATCCGTATTTGTT (site CGATCGACTGA) | 0.668

Sequence | recombinant UMI read abundance (log10)
CGATCGACATGGACCGGTTTTCCCGGTAATCCGTATTTGTT (site CGATCGACTTA) | 0.271
CGATCGACATGGACCGGTTTTCCCGGTAATCCGTATTTGTT (site CGATCGCCTAA) | 0.00955
CGATCGACATGGACCGGTTTTCCCGGTAATCCGTATTTGTT (site CGATCGGCTAA) | 0.00691
CGATCGACATGGACCGGTTTTCCCGGTAATCCGTATTTGTT (site CGATCGTCTAA) | 0.00706
CGATCGACATGGACCGGTTTTCCCGGTAATCCGTATTTGTT (site CGATCTACTAA) | 0.00746
CGATCGACATGGACCGGTTTTCCCGGTAATCCGTATTTGTT (site CGATGGACTAA) | 0.0255
CGATCGACATGGACCGGTTTTCCCGGTAATCCGTATTTGTT (site CGATTGACTAA) | 0.0149
CGATCGACATGGACCGGTTTTCCCGGTAATCCGTATTTGTT (site CGCTCGACTAA) | 0.0137
CGATCGACATGGACCGGTTTTCCCGGTAATCCGTATTTGTT (site CGGTCGACTAA) | 0.012
CGATCGACATGGACCGGTTTTCCCGGTAATCCGTATTTGTT (site CGTTCGACTAA) | 0.0124
CGATCGACATGGACCGGTTTTCCCGGTAATCCGTATTTGTT (site CTATCGACTAA) | 0.0176
CGATCGACATGGACCGGTTTTCCCGGTAATCCGTATTTGTT (site GGATCGACTAA) | 0.0103
CGATCGACATGGACCGGTTTTCCCGGTAATCCGTATTTGTT (site TGATCGACTAA) | 0.00749
CGATCGCCATGGACCGGTTTTCCCGGTAATCCGTATTTGCT (site CGATCATCTAG) | 0
CGATCGCCATGGACCGGTTTTCCCGGTAATCCGTATTTGCT (site CGATCGCCTAG) | 0.27
CGATCGGCATGGACCGGTTTTCCCGGTAATCCGTATTTGTT (site CGATCGACTAA) | 0.00492
CGATCGGCATGGACCGGTTTTCCCGGTAATCCGTATTTGTT (site CGATCGCCTAA) | 0.0111
CGATCGGCATGGACCGGTTTTCCCGGTAATCCGTATTTGTT (site CGATCGGCTAA) | 0.642
CGATCGGCATGGACCGGTTTTCCCGGTAATCCGTATTTGTT (site CGATCGTCTAA) | 0.324
CGATCTTCATGGACCGGTTTTCCCGGTAATCCGTATTTGCA (site CGATCATCTAG) | 0
CGATCTTCATGGACCGGTTTTCCCGGTAATCCGTATTTGCA (site CGATCTTCTTG) | 0.912
CGATGACCATGGACCGGTTTTCCCGGTAATCCGTATTTGGG (site CGAAGACCTCC) | 0.00605
CGATGACCATGGACCGGTTTTCCCGGTAATCCGTATTTGGG (site CGACGACCTCC) | 0.00326
CGATGACCATGGACCGGTTTTCCCGGTAATCCGTATTTGGG (site CGAGGACCTCC) | 0.0601
CGATGACCATGGACCGGTTTTCCCGGTAATCCGTATTTGGG (site CGATGACCTCC) | 0.0111

Sequence | recombinant UMI read abundance (log10)
CGATGATCATGGACCGGTTTTCCCGGTAATCCGTATTTGAT (site CGATCATCTAG) | 0
CGATGATCATGGACCGGTTTTCCCGGTAATCCGTATTTGAT (site CGATGATCTAT) | 2.44
CGATGCACATGGACCGGTTTTCCCGGTAATCCGTATTTGAT (site CGATGCACTAT) | 2.34
CGATTACCATGGACCGGTTTTCCCGGTAATCCGTATTTGAT (site CGATTACCTAT) | 0
CGATTGGCATGGACCGGTTTTCCCGGTAATCCGTATTTGCT (site CGATTGGCTAG) | 0.768
CGATTGGCATGGACCGGTTTTCCCGGTAATCCGTATTTGCT (site CGCTTGGCTAG) | 0
CGATTGGCATGGACCGGTTTTCCCGGTAATCCGTATTTGCT (site CGGTTGGCTAG) | 0
CGATTGGCATGGACCGGTTTTCCCGGTAATCCGTATTTGCT (site CGTTTGGCTAG) | 0
CGATTTACATGGACCGGTTTTCCCGGTAATCCGTATTTGGC (site CGATTTACTGC) | 0
CGATTTCCATGGACCGGTTTTCCCGGTAATCCGTATTTGTT (site CGATTTCCTAA) | 0.757
CGCAACTCATGGACCGGTTTTCCCGGTAATCCGTATTTGAC (site CGCAACTCTGT) | 2.04
CGCAAGACATGGACCGGTTTTCCCGGTAATCCGTATTTGGT (site CGCAAGACTAC) | 1.19
CGCAATCCATGGACCGGTTTTCCCGGTAATCCGTATTTGAA (site AGCAATCCTTT) | 0.0753
CGCAATCCATGGACCGGTTTTCCCGGTAATCCGTATTTGAA (site CGCAATCCTTT) | 1.27
CGCAATCCATGGACCGGTTTTCCCGGTAATCCGTATTTGAA (site GGCAATCCTTT) | 0.00324
CGCAATCCATGGACCGGTTTTCCCGGTAATCCGTATTTGAA (site TGCAATCCTTT) | 0.00288
CGCACCTCATGGACCGGTTTTCCCGGTAATCCGTATTTGGG (site CGCACCTCTCC) | 0.526
CGCAGACCATGGACCGGTTTTCCCGGTAATCCGTATTTGGG (site CGCAGACCTCC) | 0.0135
CGCAGTACATGGACCGGTTTTCCCGGTAATCCGTATTTGCT (site CGCAGTACTAG) | 1.44
CGCAGTACATGGACCGGTTTTCCCGGTAATCCGTATTTGCT (site CGCCGTACTAG) | 0
CGCAGTACATGGACCGGTTTTCCCGGTAATCCGTATTTGCT (site CGCGGTACTAG) | 0.749
CGCAGTACATGGACCGGTTTTCCCGGTAATCCGTATTTGCT (site CGCTGTACTAG) | 0
CGCAGTCCATGGACCGGTTTTCCCGGTAATCCGTATTTGAG (site CGCAGTCCTCT) | 0.438
CGCATATCATGGACCGGTTTTCCCGGTAATCCGTATTTGTC (site CACATATCTGA) | 0
CGCATATCATGGACCGGTTTTCCCGGTAATCCGTATTTGTC (site CCCATATCTGA) | 0
